Data as given in EP3046573B1, “AMYLIN ANALOGUES” (Zealand Pharma A/S, priority 2013, dated 2015).
Read-outs that look alike come from different tables or passages of the source. Numbered stars: 1 amine (or outer) side, 2 acyl side, 3 side chain; on linkers, the order of the positions; unused ones are H or OH. Bridge positions count the residues as written; N and C are the ends. Square brackets hold non-standard residues; d marks the D form. Peptide text beside a SMILES is read from it. * marks the point of attachment. C20 diacid = O=C(O)CCCCCCCCCCCCCCCCCCC(=O)*; γGlu = O=C(O)[C@H](CCC(=O)[*:2])N[*:1]; NMeI = CC[C@H](C)[C@H](NC)C(=O)O; NMeA = CN[C@@H](C)C(=O)O; Sar = CNCC(=O)O

Experiments:
[1] = biological target: T1, human calcitonin receptor (hCTR2) (Homo sapiens, UniProt P30988); assay: hCTR2 assay: induction of cAMP (AlphaScreen cAMP Assay kit) in COS7 cells expressing hCTR2; type: cell-based
T1 construct: expressed in transfected cells
T1 sequence (P30988 25-474): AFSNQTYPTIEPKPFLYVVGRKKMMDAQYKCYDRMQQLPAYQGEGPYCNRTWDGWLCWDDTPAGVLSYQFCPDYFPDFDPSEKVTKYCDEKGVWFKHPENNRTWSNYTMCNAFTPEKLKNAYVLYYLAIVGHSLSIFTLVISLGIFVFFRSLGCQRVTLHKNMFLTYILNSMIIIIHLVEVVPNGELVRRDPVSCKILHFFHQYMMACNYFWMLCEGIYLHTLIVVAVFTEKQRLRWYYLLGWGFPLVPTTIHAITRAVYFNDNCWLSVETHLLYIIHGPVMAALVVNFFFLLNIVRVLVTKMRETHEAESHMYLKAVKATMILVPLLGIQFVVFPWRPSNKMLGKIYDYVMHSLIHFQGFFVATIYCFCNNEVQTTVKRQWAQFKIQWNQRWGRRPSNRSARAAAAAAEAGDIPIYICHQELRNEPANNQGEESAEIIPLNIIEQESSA
In short: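 Stable hCTR2 clone in RAMP-naive COS7 cells; peptides titrated in Tyrode buffer (pH 7.4) with 100 µM IBMX, 0.1% casein, 15 min at 37° C. cAMP read by AlphaScreen after lysis; EC50 and efficacy relative to pramlintide from 4PL fit.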

[2] = Solubility assessment (turbidity absorbance at 325 nm); type: physicochemical; details: stock 2 mg/ml diluted 1:1, ambient temperature (typically 25°C), n=1; for Solubility, Acetate buffer pH 4: 100 mM acetate buffer pH 4.0; for Solubility, Acetate buffer pH 5: 100 mM acetate buffer pH 5.0; for Solubility, Histidine buffer pH 6: 100 mM histidine buffer pH 6.0; for Solubility, Histidine buffer pH 7: 100 mM histidine buffer pH 7.0; for Solubility, Phosphate buffer pH 6: 100 mM phosphate buffer pH 6.0; for Solubility, Phosphate buffer pH 7: 100 mM phosphate buffer pH 7.0; for Solubility, Phosphate buffer pH 7.5: 100 mM phosphate buffer pH7.5
In short: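 Peptide stock (2 mg/ml, water pH 2.5) diluted 1:1 into 100 mM acetate (pH 4.0, 5.0), histidine (pH 6.0, 7.0) or phosphate (pH 6.0–7.5) buffer; absorbance at 325 nm read at about 25°C, n=1. A325 ≤ 0.02 taken as solubility ≥ 1 mg/ml.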

[3] = cAMP induction in COS7 cells expressing hCTR2, average of a minimum of 3 determinations, read-out: hCTR2 EC50

| Compound | EC50 [1, 3] [nM] | Solubility, Acetate buffer pH 4 [2] | Solubility, Acetate buffer pH 5 [2] | Solubility, Histidine buffer pH 6 [2] | Solubility, Histidine buffer pH 7 [2] | Solubility, Phosphate buffer pH 6 [2] | Solubility, Phosphate buffer pH 7 [2] | Solubility, Phosphate buffer pH 7.5 [2] | EC50 [1] [nM] |
| --- | --- | --- | --- | --- | --- | --- | --- | --- | --- |
| CC[C@H](C)[C@@H](C(=O)N[C@@H](CC(C)C)C(=O)N[C@@H](CO)C(=O)N[C@@H](CO)C(=O)N[C@H](C(=O)N[C@@H](CC(N)=O)C(=O)N[C@H](C(=O)NCC(=O)N[C@@H](CO)C(=O)N[C@@H](CC(N)=O)C(=O)N[C@H](C(=O)N1CCC[C@H]1C(N)=O)[C@@H](C)O)C(C)C)[C@@H](C)O)N(C)C(=O)CN(C)C(=O)[C@H](Cc1ccccc1)NC(=O)[C@H](CO)NC(=O)[C@H](CO)NC(=O)[C@H](Cc1c[nH]cn1)NC(=O)[C@H](Cc1c[nH]cn1)NC(=O)[C@H](CC(C)C)NC(=O)[C@H](Cc1ccccc1)NC(=O)[C@H](CCC(=O)O)NC(=O)[C@H](C)NC(=O)[C@H](CC(C)C)NC(=O)[C@H](CCCNC(=N)N)NC(=O)[C@H](CCC(N)=O)NC(=O)[C@@H](NC(=O)[C@H](C)NC(=O)[C@@H]1CSSC[C@H](NC(=O)[C@H](CCCNC(=N)N)NC(=O)CC[C@H](NC(=O)CCCCCCCCCCCCCCCCCCC(=O)O)C(=O)O)C(=O)N[C@@H](CC(N)=O)C(=O)N[C@@H]([C@@H](C)O)C(=O)N[C@@H](C)C(=O)N[C@@H]([C@@H](C)O)C(=O)N1)[C@@H](C)O [Compound 53, [19CD]-isoGlu-RC()NTATC()ATQRLAEFLHHSSF-Gly(Me)-Ile(Me)-LSSTNVGSNTP-NH2] ({C20 diacid-γGlu}-RCNTATCATQRLAEFLHHSSF[Sar][NMeI]LSSTNVGSNTP-NH2; disulfide 2-7) | 0.12 | SS (SS indicates solubility ≥ 1mg/ml) | SS (SS indicates solubility ≥ 1mg/ml) | SS (SS indicates solubility ≥ 1mg/ml) | SS (SS indicates solubility ≥ 1mg/ml) | SS (SS indicates solubility ≥ 1mg/ml) | SS (SS indicates solubility ≥ 1mg/ml) | SS (SS indicates solubility ≥ 1mg/ml) |  |
| CC[C@H](C)[C@@H](C(=O)N[C@@H](CO)C(=O)N[C@@H](CO)C(=O)N[C@H](C(=O)N[C@@H](CC(N)=O)C(=O)N[C@H](C(=O)NCC(=O)N[C@@H](CO)C(=O)N[C@@H](CC(N)=O)C(=O)N[C@H](C(=O)N1CCC[C@H]1C(N)=O)[C@@H](C)O)C(C)C)[C@@H](C)O)N(C)C(=O)[C@H](C)NC(=O)CN(C)C(=O)[C@H](Cc1ccccc1)NC(=O)[C@H](CC(N)=O)NC(=O)[C@H](CC(N)=O)NC(=O)[C@H](CO)NC(=O)[C@H](CO)NC(=O)[C@H](Cc1c[nH]cn1)NC(=O)[C@H](Cc1c[nH]cn1)NC(=O)[C@H](CC(C)C)NC(=O)[C@H](Cc1ccccc1)NC(=O)[C@H](CCC(=O)O)NC(=O)[C@H](C)NC(=O)[C@H](CC(C)C)NC(=O)[C@H](CCCNC(=N)N)NC(=O)[C@H](CCC(N)=O)NC(=O)[C@@H](NC(=O)[C@H](C)NC(=O)[C@@H]1CSSC[C@H](NC(=O)[C@H](CCCNC(=N)N)NC(=O)CC[C@H](NC(=O)CCCCCCCCCCCCCCCCCCC(=O)O)C(=O)O)C(=O)N[C@@H](CC(N)=O)C(=O)N[C@@H]([C@@H](C)O)C(=O)N[C@@H](C)C(=O)N[C@@H]([C@@H](C)O)C(=O)N1)[C@@H](C)O [Compound 54, [19CD]-isoGlu-RC()NTATC()ATQRLAEFLHHSSNNF-Gly(Me)-A-Ile(Me)-SSTNVGSNTP-NH2] ({C20 diacid-γGlu}-RCNTATCATQRLAEFLHHSSNNF[Sar]A[NMeI]SSTNVGSNTP-NH2; disulfide 2-7) |  | SS (SS indicates solubility ≥ 1mg/ml) | SS (SS indicates solubility ≥ 1mg/ml) | SS (SS indicates solubility ≥ 1mg/ml) | SS (SS indicates solubility ≥ 1mg/ml) | SS (SS indicates solubility ≥ 1mg/ml) | SS (SS indicates solubility ≥ 1mg/ml) | SS (SS indicates solubility ≥ 1mg/ml) | 0.091 |
| CC[C@H](C)[C@@H](C(=O)N[C@@H](CO)C(=O)N[C@@H](CO)C(=O)N[C@H](C(=O)N[C@@H](CC(N)=O)C(=O)N[C@H](C(=O)NCC(=O)N[C@@H](CO)C(=O)N[C@@H](CC(N)=O)C(=O)N[C@H](C(=O)N1CCC[C@H]1C(N)=O)[C@@H](C)O)C(C)C)[C@@H](C)O)N(C)C(=O)CN(C)C(=O)[C@H](Cc1ccccc1)NC(=O)[C@H](CC(N)=O)NC(=O)[C@H](CC(N)=O)NC(=O)[C@H](CO)NC(=O)[C@H](CO)NC(=O)[C@H](Cc1c[nH]cn1)NC(=O)[C@H](Cc1c[nH]cn1)NC(=O)[C@H](CC(C)C)NC(=O)[C@H](Cc1ccccc1)NC(=O)[C@H](CCC(=O)O)NC(=O)[C@H](C)NC(=O)[C@H](CC(C)C)NC(=O)[C@H](CCCNC(=N)N)NC(=O)[C@H](CCC(N)=O)NC(=O)[C@@H](NC(=O)[C@H](C)NC(=O)[C@@H]1CSSC[C@H](NC(=O)[C@H](CCCNC(=N)N)NC(=O)CC[C@H](NC(=O)CCCCCCCCCCCCCCCCCCC(=O)O)C(=O)O)C(=O)N[C@@H](CC(N)=O)C(=O)N[C@@H]([C@@H](C)O)C(=O)N[C@@H](C)C(=O)N[C@@H]([C@@H](C)O)C(=O)N1)[C@@H](C)O [Compound 55, [19CD]-isoGlu-RC()NTATC()ATQRLAEFLHHSSNNF-Gly(Me)-Ile(Me)-SSTNVGSNTP-NH2] ({C20 diacid-γGlu}-RCNTATCATQRLAEFLHHSSNNF[Sar][NMeI]SSTNVGSNTP-NH2; disulfide 2-7) | 0.076 | II (II indicates solubility ≤ 1 mg/ml) | II (II indicates solubility ≤ 1 mg/ml) | II (II indicates solubility ≤ 1 mg/ml) | II (II indicates solubility ≤ 1 mg/ml) | II (II indicates solubility ≤ 1 mg/ml) | II (II indicates solubility ≤ 1 mg/ml) | II (II indicates solubility ≤ 1 mg/ml) |  |
| CC[C@H](C)[C@@H](C(=O)N[C@@H](CC(C)C)C(=O)N[C@@H](CO)C(=O)N[C@@H](CO)C(=O)N[C@H](C(=O)N[C@@H](CC(N)=O)C(=O)N[C@H](C(=O)NCC(=O)N[C@@H](CO)C(=O)N[C@@H](CC(N)=O)C(=O)N[C@H](C(=O)N1CCC[C@H]1C(N)=O)[C@@H](C)O)C(C)C)[C@@H](C)O)N(C)C(=O)[C@H](C)NC(=O)[C@H](C)N(C)C(=O)[C@H](Cc1ccccc1)NC(=O)[C@H](CC(N)=O)NC(=O)[C@H](CC(N)=O)NC(=O)[C@H](CO)NC(=O)[C@H](CO)NC(=O)[C@H](Cc1c[nH]cn1)NC(=O)[C@H](Cc1c[nH]cn1)NC(=O)[C@H](CC(C)C)NC(=O)[C@H](Cc1ccccc1)NC(=O)[C@H](CCC(=O)O)NC(=O)[C@H](C)NC(=O)[C@H](CC(C)C)NC(=O)[C@H](CCCNC(=N)N)NC(=O)[C@H](CCC(N)=O)NC(=O)[C@@H](NC(=O)[C@H](C)NC(=O)[C@@H]1CSSC[C@H](NC(=O)[C@H](CCCNC(=N)N)NC(=O)CC[C@H](NC(=O)CCCCCCCCCCCCCCCCCCC(=O)O)C(=O)O)C(=O)N[C@@H](CC(N)=O)C(=O)N[C@@H]([C@@H](C)O)C(=O)N[C@@H](C)C(=O)N[C@@H]([C@@H](C)O)C(=O)N1)[C@@H](C)O [Compound 56, [19CD]-isoGlu-RC()NTATC()ATQRLAEFLHHSSNNF-Ala(Me)-A-Ile(Me)-LSSTNVGSNTP-NH2] ({C20 diacid-γGlu}-RCNTATCATQRLAEFLHHSSNNF[NMeA]A[NMeI]LSSTNVGSNTP-NH2; disulfide 2-7) | 0.14 | SS (SS indicates solubility ≥ 1mg/ml) | II (II indicates solubility ≤ 1 mg/ml) | II (II indicates solubility ≤ 1 mg/ml) | II (II indicates solubility ≤ 1 mg/ml) | II (II indicates solubility ≤ 1 mg/ml) | II (II indicates solubility ≤ 1 mg/ml) | II (II indicates solubility ≤ 1 mg/ml) |  |
